Results as given in patent publication US20060057696A1, “Sugar chain synthases” (priority 2002, published 2006).
Marks after values point to notes of the source that are not given here.

Assays:
Format in all cases: biochemical
[1] = target: T1, PA-mST6Gal II (mouse ST6Gal II) (Mus musculus, UniProt Q76K27, R48S); assay: Sialyltransferase activity of PA-mST6Gal II toward acceptor substrates; conditions: for Relative rate (%) Mouse ST6Gal II: PA-mST6Gal II, incorporation with Galβ1,4GlcNAc taken as 100, 0.5 mg/ml glycolipids, 1 mg/ml glycoproteins and oligosaccharides
T1 construct: amino acids 31-524 in the case of mouse ST6Gal II; signal peptide of mouse immunoglobulin IgM (N); made in house; host or cells: COS-7 cells, transient expression of pcDSA-mST6Gal II; protein recovered from medium on IgG-Sepharose
T1 sequence (Q76K27 31-524 R48S): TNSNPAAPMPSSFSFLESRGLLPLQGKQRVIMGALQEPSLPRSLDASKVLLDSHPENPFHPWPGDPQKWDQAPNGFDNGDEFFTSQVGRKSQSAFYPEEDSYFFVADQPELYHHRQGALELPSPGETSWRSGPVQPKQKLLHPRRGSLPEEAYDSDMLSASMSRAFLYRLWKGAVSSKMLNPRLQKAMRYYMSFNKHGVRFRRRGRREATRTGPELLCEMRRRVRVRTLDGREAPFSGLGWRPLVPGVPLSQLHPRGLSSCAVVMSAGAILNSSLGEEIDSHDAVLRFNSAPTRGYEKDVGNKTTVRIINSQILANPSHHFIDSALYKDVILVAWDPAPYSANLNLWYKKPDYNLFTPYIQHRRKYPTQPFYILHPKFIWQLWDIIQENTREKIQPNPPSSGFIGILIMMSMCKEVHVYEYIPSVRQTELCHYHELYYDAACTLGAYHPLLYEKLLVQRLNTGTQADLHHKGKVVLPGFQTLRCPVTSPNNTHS
Method: (§1) Using each expression vector and lipofectamine (Invitrogen), transient expression was carried out in COS-7 cells (Kojima, N. et al. (1995) FEBS Lett. 360, 1-4). The proteins of the present invention secreted from the cells into which each expression vector had been introduced were named as PA-hST6Gal II (human) and PA-mST6Gal II (mouse). PA-hST6Gal II and PA-mST6Gal II were adsorbed to IgG-Sepharose (Amersham Pharmacia Biotech), and were then recovered from medium. Sialyltransferase activity was measured as follows according to the method of Lee et al. (Lee, Y.-C. et al. (1999) J Biol. Chem. 274, 11958-11967). A reaction mixture (10 μl) containing 50 mM MES buffer (pH 6.0), 1 mM MgCl2, 1 mM CaCl2, 0.5% Triton CF-54, 100 μM CMP-[^14C]-NeuAc, a substrate sugar chain (which was added at 0.5 mg/ml in the case of glycolipids, and at 1 mg/ml in the case of glycoproteins or oligosaccharides), and a PA-hST6Gal II or PA-mST6Gal II suspension, was incubated at 37° C. for 3 to 20 hours. Thereafter, in the case of glycolipids, the reaction product was purified with a C-18 column (Sep-Pak Vac 100 mg; Waters) and the purified product was used as a sample. In the case of oligosaccharides or glycoproteins, the reaction product was directly used as a sample. Thus, the obtained sample was subjected to analysis. In the case of oligosaccharides or glycolipids, the sample was spotted on a silica gel 60 HPTLC plate (Merck), and it was then developed with a developing solvent consisting of 1-propanol:ammonia water:water=6:1:2.5 (for oligosaccharides), or a developing solvent consisting of chloroform:methanol: 0.02% CaCl2=55:45:10 (for glycolipids). In the case of glycoproteins, analysis was carried out by SDS-polyacrylamide gel electrophoresis. The obtained radioactivities were visualized with a BAS2000 radio image analyzer (Fuji Film) and then quantified.

[2] = target: T2, PA-hST6Gal II (human ST6Gal II) (Homo sapiens, UniProt Q96JF0); assay: Sialyltransferase activity of PA-hST6Gal II toward acceptor substrates; conditions: for Relative rate (%) Human ST6Gal II: PA-hST6Gal II, incorporation with Galβ1,4GlcNAc taken as 100, 0.5 mg/ml glycolipids, 1 mg/ml glycoproteins and oligosaccharides
T2 construct: amino acids 33-529 in the case of human ST6Gal II; signal peptide of mouse immunoglobulin IgM (N); made in house; host or cells: COS-7 cells, transient expression of pcDSA-hST6Gal II; protein recovered from medium on IgG-Sepharose
T2 sequence (Q96JF0 33-529): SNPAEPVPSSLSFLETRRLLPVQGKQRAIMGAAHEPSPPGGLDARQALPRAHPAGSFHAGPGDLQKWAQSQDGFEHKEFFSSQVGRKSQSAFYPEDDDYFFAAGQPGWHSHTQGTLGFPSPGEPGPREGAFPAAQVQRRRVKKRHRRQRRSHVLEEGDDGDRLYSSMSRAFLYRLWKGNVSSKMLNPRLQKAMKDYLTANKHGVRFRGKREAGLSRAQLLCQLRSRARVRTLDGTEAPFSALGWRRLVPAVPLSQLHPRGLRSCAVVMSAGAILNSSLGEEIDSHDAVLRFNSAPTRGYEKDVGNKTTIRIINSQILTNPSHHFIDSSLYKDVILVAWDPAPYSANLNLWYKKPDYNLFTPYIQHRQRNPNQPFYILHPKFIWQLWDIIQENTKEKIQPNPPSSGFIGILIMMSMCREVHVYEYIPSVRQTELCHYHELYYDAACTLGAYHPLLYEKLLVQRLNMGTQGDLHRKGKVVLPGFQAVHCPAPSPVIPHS
Method: as §1

human ST6Gal I = target: T3, human ST6Gal I (Homo sapiens, UniProt P15907); assay: Sialyltransferase activity of human ST6Gal I toward acceptor substrates (comparison); conditions: for Relative rate (%) Human ST6Gal I: incorporation with Galβ1,4GlcNAc taken as 100, 0.5 mg/ml glycolipids, 1 mg/ml glycoproteins and oligosaccharides
T3 sequence (P15907 1-406): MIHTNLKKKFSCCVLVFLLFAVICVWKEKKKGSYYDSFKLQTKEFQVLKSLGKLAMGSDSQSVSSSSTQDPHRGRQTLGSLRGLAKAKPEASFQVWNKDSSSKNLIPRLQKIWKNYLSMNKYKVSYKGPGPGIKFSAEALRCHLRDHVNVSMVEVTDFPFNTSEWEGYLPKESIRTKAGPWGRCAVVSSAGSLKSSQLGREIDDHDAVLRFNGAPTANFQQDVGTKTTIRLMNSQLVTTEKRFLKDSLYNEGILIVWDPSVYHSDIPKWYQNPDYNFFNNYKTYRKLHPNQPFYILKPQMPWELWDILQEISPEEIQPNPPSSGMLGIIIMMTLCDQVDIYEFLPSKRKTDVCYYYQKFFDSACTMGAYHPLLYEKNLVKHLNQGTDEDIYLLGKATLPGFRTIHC
Method: as §1
In contrast, there were no glycolipids, which could be substrates of both the enzymes, as far as the inventors have examined. The activity of human ST6Gal I on oligosaccharides was also examined for comparison. […] (FIG. 10).

OC[C@H]1O[C@@H](O[C@H]2[C@H](O)[C@@H](O)C(O)O[C@@H]2CO)[C@H](O)[C@@H](O)[C@H]1O (stereo partly shown) [Lactose, Galβ1,4Glc]
Relative rate (%) Mouse ST6Gal II [1]: 0%
Relative rate (%) Human ST6Gal II [2]: 0%
activity of human ST6Gal I on the substrate (in words) (human ST6Gal I): showed activity
Relative rate (%) Human ST6Gal I (human ST6Gal I): 8.7%

Galβ1,3GlcNAcβ1,3Galβ1,4Glc [Lacto-N-tetraose]
Relative rate (%) Mouse ST6Gal II [1]: 0%
Relative rate (%) Human ST6Gal II [2]: 0%
activity of human ST6Gal I on the substrate (in words) (human ST6Gal I): showed activity
Relative rate (%) Human ST6Gal I (human ST6Gal I): 31.1%

Galβ1,4GlcNAc [Type II]
incorporation obtained with Galβ1,4GlcNAc ([1]; Mouse ST6Gal II, the value set as 100): *, 2.74 pmol/h/ml medium.
Relative rate (%) Mouse ST6Gal II [1]: 100* %
incorporation obtained with Galβ1,4GlcNAc ([2]; Human ST6Gal II, the value set as 100): **, 1.03 pmol/h/ml medium.
incorporation obtained with Galβ1,4GlcNAc (human ST6Gal I; Human ST6Gal I, the value set as 100): ***, 8.14 pmol/h/ml medium.
Relative rate (%) Human ST6Gal I (human ST6Gal I): 100*** %

CC(=O)N[C@H]1[C@H](O[C@H]2[C@@H](O)[C@@H](CO)O[C@@H](O[C@H]3[C@H](O)[C@@H](O)C(O)O[C@@H]3CO)[C@@H]2O)O[C@H](CO)[C@@H](O[C@@H]2O[C@H](CO)[C@H](O)[C@H](O)[C@H]2O)[C@@H]1O (stereo partly shown) [Lacto-N-neotetraose, Galβ1,4GlcNAcβ1,3Galβ1,4Glc]
Relative rate (%) Mouse ST6Gal II [1]: 128.8%
Relative rate (%) Human ST6Gal II [2]: 86.2%
Relative rate (%) Human ST6Gal I (human ST6Gal I): 101.6%

CC(=O)N[C@H]1C(O)O[C@H](CO)[C@H](O)[C@@H]1O[C@@H]1O[C@H](CO)[C@H](O)[C@H](O)[C@H]1O (stereo partly shown) [Type III, Galβ1,3GalNAc]
Relative rate (%) Mouse ST6Gal II [1]: 0%
Relative rate (%) Human ST6Gal II [2]: 0%
Relative rate (%) Human ST6Gal I (human ST6Gal I): 0%
